The experiment concerns H1N1 (influenza A/New Caledonia/20/99). The experiment in a line: microbe, parasite or virus in culture. The experiment is classed as cell-based. The settings on record: H1N1, A549, 48 h, read-out: IC50 (antiviral effect, Influenza replication).
By IC50 is commonly meant the point on the concentration scale where inhibition reaches its midpoint. Consider `COc1ccc(C(=O)Nc2sc3c(c2C(=O)O)CCC(C)(C)C3)cc1OC` [Compound #18], for which the IC50 was found to be 0.05 µM.
Under `CCOC(=O)N1CCC(NC(=S)Nc2cc(Cl)cc(Cl)c2)CC1` [Compound T01001, ethyl-4-(3-(3,5-dichlorophenyl)thioureido)piperidine-1-carboxylate] stands 18 µM; under `CCc1ccc(CCOc2ccc(CC3SC(=O)NC3=O)cc2)nc1` (stereo not drawn) [Pioglitazone], 38 µM.

(Values after patent US20210038566A1, “USE OF MODULATORS OF NEET PROTEINS FOR THE TREATMENT OF INFECTION” (ENYO PHARMA, priority 2018, published 2021).)
